Data as given in US9359298B2, “Cajanine structure analogous compound, preparation method and use” (INSTITUTE OF MEDICINAL BIOTECHNOLOGY, CHINESE ACADEMY OF …, priority 2011, dated 2016).
≈ marks a conversion by molar mass, not a printed value. Like-named read-outs stand apart in the source and are kept apart here.

Key:
Assay type in all cases: cell-based
[1] = system: Influenza A virus (hanfang359/95); experiment: Determination of anti-influenza virus activity (CPE in MDCK cells); conditions: for IC50: Influenza A virus, MDCK, 36 h; for anti-influenza virus activities compared with the lead compound cajanine: statement in words
PC12 cells [2] = experiment: Neuroprotective activity assay, rotenone injury to PC12 cells (MTT); conditions: for viability at 10 µM: Rattus norvegicus, PC-12, 48 h, read-out: rotenone (surviving PC12 cells, MTT 570 nm); for protective effect on rotenone injury to PC12 cells: statement in words
Method in brief: (§1)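 Survival measured as MTT absorbance at 570 nm after 4 h dye uptake. Compounds (10 μM) were co-applied for 48 h to PC12 cells deprived of serum or exposed to 4 μM rotenone, following 24 h seeding on poly-lysine.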

Coxsackie virus B6 = experiment: Coxsackie virus activity assay (CPE in Vero cells); conditions: for IC50: Vero
HCV = experiment: Anti-hepatitis C virus (HCV) activity assay (HCV RNA in Huh7.5 cells); conditions: for EC50: Hepatitis C virus, Huh7.5, 72 h, read-out: HCV EC50; for anti-HCV viral activity: statement in words
Method: Inoculate Huh7.5 cells into 96-well plates to a density of 3×10^4 cells/cm^2, culture for 24h, infect the cells with 45 IU/cell HCV supernatant, meanwhile, add drug solutions or solvent control for treatment.

HIV-1 III B virus = experiment: Anti-HIV activity assay (P24 antigen in MT-4 cells); conditions: for IC50: Human immunodeficiency virus 1, MT4, 96 h, read-out: HIV IC50; for anti-HIV viral activity: statement in words
PC12 cells [3] = experiment: Neuroprotective activity assay, serum-deprived injury to PC12 cells (MTT); conditions: for viability at 10 µM: Rattus norvegicus, PC-12, 48 h, read-out: serum-deprived (surviving PC12 cells, MTT 570 nm); for protective effect on serum-deprived injury to PC12 cells: statement in words
Method in brief: as §1

[4] = 10 μM test compound, 4 μM rotenone, 48 h, Control 100.0 ± 8.9, Model 73.2 ± 7.8
[5] = read-out: COX-B6 IC50, Vero cells, about 100TCID50, CPE, Reed-Muench
[6] = Huh7.5 cells, 72 h, HCV RNA by RT-PCR, Reed-Muench
[7] = MT-4 cells, HIV-1 III B 100TCID50, 96 h, P24 antigen
[8] = 10 μM test compound, 48 h, Control 100.0 ± 9.2, Model 69.3 ± 4.1

Compound	IC50 [1]	viability at 10 µM (PC12 cells [2]; [4])	IC50 (Coxsackie virus B6; [5])	EC50 (HCV; [6])	IC50 (HIV-1 III B virus; [7])	viability at 10 µM (PC12 cells [3]; [8])	protective effect on rotenone injury to PC12 cells (PC12 cells [2])	IC50 (Coxsackie virus B6; read-out: COX-B6 IC50)	protective effect on serum-deprived injury to PC12 cells (PC12 cells [3])	anti-influenza virus activities compared with the lead compound cajanine [1]	anti-HCV viral activity (HCV)	anti-HIV viral activity (HIV-1 III B virus)	Influenza A virus (hanfang359/95) IC50 [1]	rotenone (surviving PC12 cells, MTT 570 nm) (PC12 cells [2]; [4])	COX-B6 IC50 (Coxsackie virus B6)	HCV EC50 (HCV; [6])	HIV IC50 (HIV-1 III B virus; [7])	serum-deprived (surviving PC12 cells, MTT 570 nm) (PC12 cells [3]; [8])
COc1cc(/C=C/c2ccccc2)c(C(=O)NC2CCNCC2)c(O)c1CC=C(C)C [Compound 9f]	0.31 µg/mL (≈ 0.737 µM)	68.5 ± 4.9%	0.24 µg/mL (≈ 0.571 µM)	6.09 µg/mL (≈ 14.5 µM)	0.14 µg/mL (≈ 0.333 µM)	58.9 ± 2.6%												
COc1cc(/C=C/c2ccc(C)cc2)c(C(=O)O)c(O)c1CC=C(C)C [Compound 1g, 2-hydroxy-3-isopentenyl-4-methoxy-6-[(E)-4-methylstyryl]benzoic acid]	> 0.82 µg/mL	77.7 ± 12.9%	4.25 µg/mL (≈ 12.1 µM)	1.43 µg/mL (≈ 4.06 µM)	0.68 µg/mL (≈ 1.93 µM)	59.8 ± 11.4%												
COc1cc(/C=C/c2ccc(OC)c(O)c2)cc(OC)c1 [Compound 21d, 1,3-dimethoxy-5-[(E)-3-hydroxy-4-methoxy-styryl]benzene]	5.42 µg/mL (≈ 18.9 µM)	89.8 ± 2.8%		3.37 µg/mL (≈ 11.8 µM)	0.63 µg/mL (≈ 2.2 µM)	88.7 ± 6.3%	the strongest activities	7.98 µg/mL (≈ 27.9 µM)	the strongest activities									
COc1cc(/C=C/c2ccccc2)cc(O)c1CC=C(C)C [Compound 10, Cajanine A]	0.27 µg/mL (≈ 0.917 µM)	69.9 ± 5.8%	0.69 µg/mL (≈ 2.34 µM)	0.56 µg/mL (≈ 1.9 µM)	0.21 µg/mL (≈ 0.713 µM)	34.7 ± 9.8%				significantly stronger than the lead compound cajanine	stronger anti-HIV, HCV viral activities	stronger anti-HIV, HCV viral activities						
CC/C=C/c1cc(OC)c(CC=C(C)C)c(O)c1C(=O)OC [Compound 8h, methyl 2-hydroxy-3-isopentenyl-4-methoxy-6-[(E)-buten-1-yl]-benzoate]	1.92 µg/mL (≈ 6.31 µM)	72.4 ± 4.3%	> 2.06 µg/mL	1.42 µg/mL (≈ 4.67 µM)	2.66 µg/mL (≈ 8.74 µM)	35.4 ± 10.6%												
COC(=O)/C(=C\c1cc(OC)c(CC=C(C)C)c(O)c1C(=O)OC)c1ccccc1 [Compound 8s]	0.24 µg/mL (≈ 0.585 µM)	76.8 ± 5.4%	3.52 µg/mL (≈ 8.58 µM)	0.84 µg/mL (≈ 2.05 µM)	0.52 µg/mL (≈ 1.27 µM)	79.8 ± 5.2%					stronger anti-HIV, HCV viral activities	stronger anti-HIV, HCV viral activities						
COc1cc(/C=C/c2ccncc2)cc(O)c1CC=C(C)C [Compound 10r, 2-isopentenyl-3-methoxy-5-[(E)-(pyrid-4-yl)ethenyl]phenol]	> 0.69 µg/mL	58.4 ± 6.5%	3.23 µg/mL (≈ 10.9 µM)	1.71 µg/mL (≈ 5.79 µM)	1.73 µg/mL (≈ 5.86 µM)	68.5 ± 2.4%												
COC(=O)c1c(/C=C/c2ccncc2)cc(OC)c(CC=C(C)C)c1O [Compound 8r]	4.65 µg/mL (≈ 13.2 µM)	69.8 ± 8.4%	6.43 µg/mL (≈ 18.2 µM)	3.14 µg/mL (≈ 8.88 µM)	4.01 µg/mL (≈ 11.3 µM)	74.5 ± 5.7%												
COc1cc(/C=C/c2ccccc2)c(C(=O)O)c(O)c1C/C=C(\C)CCC=C(C)C [Compound 1o]	> 2.47 µg/mL	61 ± 2.8%	1.36 µg/mL (≈ 3.35 µM)	1.47 µg/mL (≈ 3.62 µM)	1.76 µg/mL (≈ 4.33 µM)	28.1 ± 11.9%												
Oc1cc(O)cc(/C=C/c2ccc(O)c(O)c2)c1 [Compound 21e, 1,3-dihydroxy-5-[(E)-3,4-dihydroxystyryl]benzene]	2.38 µg/mL (≈ 9.74 µM)	87.4 ± 2.5%	4.86 µg/mL (≈ 19.9 µM)	2.06 µg/mL (≈ 8.43 µM)	6.33 µg/mL (≈ 25.9 µM)	85.6 ± 4.2%												
COc1cc(/C=C/c2ccncc2)c(C(=O)O)c(O)c1CC=C(C)C [Compound 1r, 2-hydroxy-3-isopentenyl-4-methoxy-6-[(E)-2-(pyridin-4-yl)ethenyl]benzoic acid]	6.36 µg/mL (≈ 18.7 µM)	86.3 ± 5.4%	6.35 µg/mL (≈ 18.7 µM)	6.79 µg/mL (≈ 20 µM)	6.53 µg/mL (≈ 19.2 µM)	84.3 ± 6.3%	the strongest activities		the strongest activities									
COc1cc(/C=C/c2ccccc2)c(C(=O)O)c(OC(C)=O)c1CC=C(C)C [Compound 24h]	0.45 µg/mL (≈ 1.18 µM)	87.8 ± 6.3%	1.21 µg/mL (≈ 3.18 µM)	2.39 µg/mL (≈ 6.28 µM)	1.33 µg/mL (≈ 3.5 µM)	88.9 ± 5.4%												
COc1cc(C=C2CCC(C)CC2)c(C(=O)O)c(O)c1CC=C(C)C (stereo not shown) [Compound 1n, 2-hydroxy-3-isopentenyl-4-methoxy-6-(4′-methyl-cyclohexylenemethyl)benzoic acid]													>6.17 µg/mL	62.9 ± 2.7	>0.69 µg/mL	2.61 µg/mL	0.99 µg/mL	17.3 ± 2.4
COc1cc(/C=C/c2ccc(O)cc2)cc(O)c1CC=C(C)C [Compound 10q, 2-isopentenyl-3-methoxy-5-[(E)-4′-hydroxystyryl]-phenol]	1.39 µg/mL (≈ 4.48 µM)	76.8 ± 5.8%	2.35 µg/mL (≈ 7.57 µM)	0.89 µg/mL (≈ 2.87 µM)	2.38 µg/mL (≈ 7.67 µM)	79.5 ± 1.4%				significantly stronger than the lead compound cajanine	stronger anti-HIV, HCV viral activities	stronger anti-HIV, HCV viral activities						
COc1cc(/C=C/c2ccccc2)c(C(=O)Nc2ccccc2)c(O)c1CC=C(C)C [Compound 9g, N-phenyl-2-hydroxy-3-isopentenyl-4-methoxy-6-[(E)-styryl]benzamide]	0.84 µg/mL (≈ 2.03 µM)	87.4 ± 1.9%	1.59 µg/mL (≈ 3.85 µM)	5.1 µg/mL (≈ 12.3 µM)	0.79 µg/mL (≈ 1.91 µM)	89.4 ± 2.3%	the strongest activities		the strongest activities									
COc1cc(/C=C/c2ccccc2)c(C(=O)O)c(OC(=O)CN(C)C)c1CC=C(C)C [Compound 24n, 2-(N,N-dimethylacetyloxy)-3-isopentenyl-4-methoxy-6-[(E)-styryl]benzoic acid]	7.21 µg/mL (≈ 17 µM)	79.8 ± 5.6%	1.35 µg/mL (≈ 3.19 µM)	1.97 µg/mL (≈ 4.65 µM)	3.12 µg/mL (≈ 7.37 µM)	75.8 ± 3.2%												
COc1cc(/C=C/CCc2ccccc2)c(C(=O)O)c(O)c1CC=C(C)C [Compound 1l, 2-hydroxy-3-isopentenyl-4-methoxy-6-[(E)-4′-phenylbuten-1′-yl]benzoic acid]	0.36 µg/mL (≈ 0.982 µM)	58.4 ± 1.4%	> 2.06 µg/mL	0.65 µg/mL (≈ 1.77 µM)	1.64 µg/mL (≈ 4.48 µM)	27.2 ± 7.2%				significantly stronger than the lead compound cajanine	stronger anti-HIV, HCV viral activities	stronger anti-HIV, HCV viral activities						
COc1cc(CCc2ccccc2)cc(O)c1CCC(C)C [Compound 10u, 2-isopentyl-3-methoxy-5-phenethyl phenol]	> 2.06 µg/mL	85.4 ± 2.3%	> 6.19 µg/mL	4.06 µg/mL (≈ 13.6 µM)	6.39 µg/mL (≈ 21.4 µM)	87.6 ± 3.2%	the strongest activities		the strongest activities									
COc1cc(/C=C/c2ccc(F)cc2)c(C(=O)O)c(O)c1CC=C(C)C [Compound 1a, 2-hydroxy-3-isopentenyl-4-methoxy-6-[(E)-4-fluorostyryl]benzoic acid]	> 0.69 µg/mL	62.4 ± 3.8%	> 0.69 µg/mL	1.04 µg/mL (≈ 2.92 µM)	1.01 µg/mL (≈ 2.83 µM)	16.7 ± 0.6%					stronger anti-HIV, HCV viral activities	stronger anti-HIV, HCV viral activities						
COC(=O)c1c(/C=C/c2ccccc2)cc(OC)c(CC=C(C)C)c1OC [Compound 14, methyl 2,4-dimethoxy-3-isopentenyl-6-[(E)-styryl]benzoate]	> 2.06 µg/mL	73.7 ± 8.5%	1.6 µg/mL (≈ 4.37 µM)	1.77 µg/mL (≈ 4.83 µM)	1.32 µg/mL (≈ 3.6 µM)	69.7 ± 5.6%												
COc1cc(/C=C/c2ccccc2C)cc(O)c1CC=C(C)C [Compound 10e, 2-isopentenyl-3-methoxy-5-[(E)-2′-methylstyryl]phenol]	1.92 µg/mL (≈ 6.23 µM)	70.2 ± 8.1%	2.35 µg/mL (≈ 7.62 µM)	1.9 µg/mL (≈ 6.16 µM)	1.33 µg/mL (≈ 4.31 µM)	65.3 ± 2.3%				significantly stronger than the lead compound cajanine								
COc1cc(/C=C/Cc2ccccc2)cc(OC)c1 [Compound 21a, 1,3-dimethoxy-5-[(E)-3-phenylpropen-1-yl]benzene]	1.32 µg/mL (≈ 5.19 µM)	80.5 ± 2.3%	4.23 µg/mL (≈ 16.6 µM)	2.83 µg/mL (≈ 11.1 µM)	1.1 µg/mL (≈ 4.33 µM)	81.2 ± 2.4%												
